Test results reported in patent US10442763B2, “EBNA1 inhibitors and methods using same” (priority 2015, dated 2019).
pIC50: −log10 of the molar value.

Target: T1, His-EBNA1 (DNA binding domain of EBNA1, amino acids 459-607) (Epstein-Barr virus, UniProt P03211)
T1 construct: made in house; host or cells: E. coli
Assay: Inhibition of 5'-biotin-oPL4624 binding to His-EBNA1 using Alpha Screen technology
Protocol: Inhibition of 5′-Biotin-oPL4624 Binding to his-EBNA1 Using Alpha Screen Technology
Assays were performed using the DNA binding domain of EBNA1 (amino acids 459-607), which was His-tagged (His-EBNA1) and the self-complementary biotinylated (bt) oligonucleotide with the sequence 5′-bt-[…]-ATGCTACCC-3′ (bt-oPL4624; or 5′-bt-SEQ ID NO: 1). The protein was expressed in E. coli and purified according to Barwell, et al., 1995, J Biol Chem. 270:20556-9.). The bt-oPL4624 oligonucleotide was purchased from Integrated DNA Technologies, Inc (IDT). AlphaScreen donor, acceptor beads and white, opaque 384-well assay plates were purchased from PerkinElmer, Inc.
Assays contained 15 nM His-EBNA1, 0.2 nM bt-oPL4624, 5 μg/mL AlphaScreen streptavidin donor beads and nickel chelate acceptor beads, and a series of concentrations of test compound ranging from 3.2 nM to 100 μM in a total volume of 40 μL assay buffer (25 mM Tris, pH 7.2, 160 mM NaCl, 1 mM MgCl2). His-EBNA1 (30 nM) and bt-oPL4624 (0.4 nM) were preincubated with 10 μg/mL nickel chelate AlphaScreen acceptor bead, or 10 μg/mL streptavidin AlphaScreen donor bead, respectively, for 30 minutes at room temperature in assay buffer. Twenty microliters of His-EBNA1/acceptor bead mix and bt-oPL4624/donor bead mix were transferred to assay plates containing 0.4 μL of 1:3 serial dilutions of test compounds previously prepared in DMSO at concentrations ranging from 0.32 μM to 10 mM. Non-specific binding was determined with 5 μg/mL AlphaScreen acceptor bead in the absence of His-EBNA1. After 2 hr incubation at room temperature, the AlphaScreen signal was measured on the Envision plate reader (PerkinElmer, Inc.) at 680 nm excitation and 570 nm emission. Inhibition values at each concentration of test compound were determined by setting 100% equal to raw data values in the absence of EBNA1 and 0% equal to the raw data values in the presence of EBNA1. Nonlinear regression fits of the inhibition values to a one-site dose-response equation were performed using GraphPad Prism.

T1 sequence (P03211 459-607): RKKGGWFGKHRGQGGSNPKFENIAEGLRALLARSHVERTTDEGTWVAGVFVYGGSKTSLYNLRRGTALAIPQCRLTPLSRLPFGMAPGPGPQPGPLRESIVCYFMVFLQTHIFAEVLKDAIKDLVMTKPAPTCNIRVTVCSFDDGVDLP

SMILES	pIC50
Cc1nc2cc(-c3c(C#Cc4ccccc4)cccc3C(=O)O)ccc2s1 [Entry 112]	4.00 to 5.00
O=C(O)c1cccc(C#Cc2ccccc2)c1-c1cc2[nH]ccc2cc1F [Entry 113]	5.00 to 6.00
O=C(O)c1cccc(C#Cc2ccccc2)c1-c1cc2cc[nH]c2cc1F [Entry 114]	4.00 to 5.00
O=C(O)c1cccc(C#Cc2ccccc2)c1-c1cnc2ncccc2c1 [Entry 115]	3.00 to 4.00
Cn1ccc2ccc(-c3c(C#Cc4ccccc4)cccc3C(=O)O)nc21 [Entry 116]	4.00 to 5.00
O=C(O)c1cccc(C#Cc2ccccc2)c1-c1ccc2cccnc2n1 [Entry 117]	4.00 to 5.00
O=C(O)c1cccc(C#Cc2ccccc2)c1-c1ccc2cc[nH]c2n1 [Entry 118]	3.00 to 4.00
COc1cc(-c2c(C#Cc3ccccc3)cccc2C(=O)O)cc2[nH]ccc12 [Entry 119]	5.00 to 6.00
CC(C)(O)c1ccc(C#Cc2cccc(C(=O)O)c2-c2ccc3cc[nH]c3c2)cc1 [Entry 120]	5.00 to 6.00
Nc1nc(-c2ccc(C#Cc3cccc(C(=O)O)c3-c3ccc4cc[nH]c4c3)cc2)cs1 [Entry 121]	5.00 to 6.00
NS(=O)(=O)c1cccc(C#Cc2cccc(C(=O)O)c2-c2ccc3cc[nH]c3c2)c1 [Entry 122]	4.00 to 5.00
Nc1ccc(C#Cc2cccc(C(=O)O)c2-c2ccc3cc[nH]c3c2)cc1S(N)(=O)=O [Entry 123]	4.00 to 5.00
CC(C)(C)OC(=O)N1CCC2(CC1)CC(=O)c1cc(C#Cc3cccc(C(=O)O)c3-c3ccc4cc[nH]c4c3)ccc1O2 [Entry 124]	5.00 to 6.00
Nc1nc(-c2cccc(C#Cc3cccc(C(=O)O)c3-c3ccc4cc[nH]c4c3)c2)cs1 [Entry 125]	5.00 to 6.00
Nc1nnc(-c2ccc(C#Cc3cccc(C(=O)O)c3-c3ccc4cc[nH]c4c3)cc2)s1 [Entry 127]	5.00 to 6.00
Nc1cc(-c2ccc(C#Cc3cccc(C(=O)O)c3-c3ccc4cc[nH]c4c3)cc2)[nH]n1 [Entry 128]	5.00 to 6.00
Nc1nc(-c2ccc(C#Cc3cccc(C(=O)O)c3-c3ccc4cc[nH]c4c3)cc2)c(C(=O)O)s1 [Entry 129]	> 6.00
Nc1ncc(-c2ccc(C#Cc3cccc(C(=O)O)c3-c3ccc4cc[nH]c4c3)cc2)o1 [Entry 130]	5.00 to 6.00
CS(=O)(=O)Nc1nc(-c2ccc(C#Cc3cccc(C(=O)O)c3-c3ccc4cc[nH]c4c3)cc2)cs1 [Entry 131]	> 6.00
CS(=O)(=O)Nc1nc(-c2cccc(C#Cc3cccc(C(=O)O)c3-c3ccc4cc[nH]c4c3)c2)cs1 [Entry 132]	> 6.00
COC1CCN(Cc2nc(=O)c3cc(C#Cc4cccc(C(=O)O)c4-c4ccc5cc[nH]c5c4)ccc3[nH]2)CC1 [Entry 133]	4.00 to 5.00
O=C(O)c1cccc(C#Cc2ccc3[nH]c(CN4CCS(=O)(=O)CC4)nc(=O)c3c2)c1-c1ccc2cc[nH]c2c1 [Entry 134]	5.00 to 6.00

SMILES	pIC50
O=C(O)c1cccc(C#Cc2ccc3nc(C(F)(F)F)[nH]c(=O)c3c2)c1-c1ccc2cc[nH]c2c1 [Entry 135]	5.00 to 6.00
COc1cccc(C)c1NC(=O)c1cccc(C#Cc2cccc(C(=O)O)c2-c2ccc3cc[nH]c3c2)c1 [Entry 137]	5.00 to 6.00
O=C(Nc1ccc(N2CCS(=O)(=O)CC2)cc1)c1cccc(C#Cc2cccc(C(=O)O)c2-c2ccc3cc[nH]c3c2)c1 [Entry 138]	5.00 to 6.00
O=C(O)c1cccc(C#Cc2ccccc2)c1-c1cnc2[nH]ccc2c1 [Entry 139]	> 6.00
O=C(O)c1cccc(C#Cc2ccc(F)cc2)c1-c1cnc2[nH]ccc2c1 [Entry 140]	4.00 to 5.00
COc1ccc(C#Cc2cccc(C(=O)O)c2-c2cnc3[nH]ccc3c2)cc1 [Entry 141]	4.00 to 5.00
O=C(O)c1cccc(C#Cc2ccc(OC3CCOCC3)cc2)c1-c1cnc2[nH]ccc2c1 [Entry 142]	4.00 to 5.00
O=C(O)c1cccc(C#Cc2ccc(OCCC3CCOCC3)cc2)c1-c1ccc2cc[nH]c2c1 [Entry 143]	5.00 to 6.00
O=C(O)c1cccc(C#Cc2ccc(OC3CCS(=O)(=O)CC3)cc2)c1-c1ccc2cc[nH]c2c1 [Entry 144]	4.00 to 5.00
O=C(O)c1cccc(C#Cc2ccc(CN3CCOCC3)cc2)c1-c1ccc2cc[nH]c2c1 [Entry 145]	5.00 to 6.00
CCN1CCN(Cc2ccc(C#Cc3cccc(C(=O)O)c3-c3ccc4cc[nH]c4c3)cc2)CC1 [Entry 146]	4.00 to 5.00
CN1CCN(Cc2ccc(C#Cc3cccc(C(=O)O)c3-c3ccc4cc[nH]c4c3)cc2)CC1 [Entry 147]	4.00 to 5.00
O=C(O)c1cccc(C#Cc2ccc(CN3CCS(=O)(=O)CC3)cc2)c1-c1ccc2cc[nH]c2c1 [Entry 148]	5.00 to 6.00
CN(C)CCN(C)Cc1ccc(C#Cc2cccc(C(=O)O)c2-c2ccc3cc[nH]c3c2)cc1 [Entry 149]	4.00 to 5.00
O=C(O)c1cccc(C#Cc2ccc(CN3CCC(CCO)CC3)cc2)c1-c1ccc2cc[nH]c2c1 [Entry 150]	5.00 to 6.00
O=C(O)c1cccc(C#Cc2ccc(CN3CCC(CO)CC3)cc2)c1-c1ccc2cc[nH]c2c1 [Entry 151]	4.00 to 5.00
CN1CCCN(Cc2ccc(C#Cc3cccc(C(=O)O)c3-c3ccc4cc[nH]c4c3)cc2)CC1 [Entry 152]	5.00 to 6.00
O=C(O)c1cccc(C#Cc2ccc(CN3CC(O)C3)cc2)c1-c1ccc2cc[nH]c2c1 [Entry 153]	4.00 to 5.00
O=C(O)c1cccc(C#Cc2ccc(CN3CCC(O)CC3)cc2)c1-c1ccc2cc[nH]c2c1 [Entry 154]	4.00 to 5.00
COC1CCN(Cc2ccc(C#Cc3cccc(C(=O)O)c3-c3ccc4cc[nH]c4c3)cc2)CC1 [Entry 155]	4.00 to 5.00
CN(C)Cc1ccc(C#Cc2cccc(C(=O)O)c2-c2ccc3cc[nH]c3c2)cc1 [Entry 156]	4.00 to 5.00
COCCN(C)Cc1ccc(C#Cc2cccc(C(=O)O)c2-c2ccc3cc[nH]c3c2)cc1 [Entry 157]	4.00 to 5.00

SMILES	pIC50
O=C(O)c1cccc(C#Cc2ccc(CN3CCC(F)(F)CC3)cc2)c1-c1ccc2cc[nH]c2c1 [Entry 158]	5.00 to 6.00
O=C(O)c1cccc(C#Cc2ccc(CN3CCCC(F)(F)C3)cc2)c1-c1ccc2cc[nH]c2c1 [Entry 159]	5.00 to 6.00
O=C(O)c1cccc(C#Cc2ccc(CN3CCc4ccccc4C3)cc2)c1-c1ccc2cc[nH]c2c1 [Entry 160]	5.00 to 6.00
CS(=O)(=O)N1CCN(Cc2ccc(C#Cc3cccc(C(=O)O)c3-c3ccc4cc[nH]c4c3)cc2)CC1 [Entry 161]	4.00 to 5.00
O=C(O)c1cccc(C#Cc2ccc(CN3CCCC(C(F)(F)F)C3)cc2)c1-c1ccc2cc[nH]c2c1 (stereo not drawn) [Entry 162]	5.00 to 6.00
COC1CCN(Cc2ccc(C#Cc3cccc(C(=O)O)c3-c3ccc4cc[nH]c4c3)cc2)C1 (stereo not drawn) [Entry 163]	4.00 to 5.00
CC(C)N1CCN(Cc2ccc(C#Cc3cccc(C(=O)O)c3-c3ccc4cc[nH]c4c3)cc2)CC1 [Entry 164]	4.00 to 5.00
O=C(O)c1cccc(C#Cc2ccc(CN3CCN(C4CCCCC4)CC3)cc2)c1-c1ccc2cc[nH]c2c1 [Entry 165]	4.00 to 5.00
O=C(O)c1cccc(C#Cc2ccc(CN3CCN(C(=O)C4CC4)CC3)cc2)c1-c1ccc2cc[nH]c2c1 [Entry 166]	5.00 to 6.00
O=C(O)c1cccc(C#Cc2ccc(CN3CCNCC3)cc2)c1-c1ccc2cc[nH]c2c1 [Entry 167]	4.00 to 5.00
O=C(O)c1cccc(C#Cc2ccc(CN3CCN(S(=O)(=O)c4ccccc4)CC3)cc2)c1-c1ccc2cc[nH]c2c1 [Entry 168]	5.00 to 6.00
O=C(O)c1cccc(C#Cc2ccc(CNC3CCS(=O)(=O)CC3)cc2)c1-c1ccc2cc[nH]c2c1 [Entry 169]	4.00 to 5.00
O=C(O)c1cccc(C#Cc2ccc(CN3CCN(C4CCCC4)CC3)cc2)c1-c1ccc2cc[nH]c2c1 [Entry 170]	4.00 to 5.00
CN(C)C(=O)N1CCN(Cc2ccc(C#Cc3cccc(C(=O)O)c3-c3ccc4cc[nH]c4c3)cc2)CC1 [Entry 171]	4.00 to 5.00
O=C(O)c1cccc(C#Cc2ccc(CN3CCN(c4cnccn4)CC3)cc2)c1-c1ccc2cc[nH]c2c1 [Entry 172]	5.00 to 6.00
O=C(O)c1cccc(C#Cc2ccc(CN3CCN(c4nccs4)CC3)cc2)c1-c1ccc2cc[nH]c2c1 [Entry 173]	5.00 to 6.00
Nc1nc2c(s1)C[C@@H](NCc1ccc(C#Cc3cccc(C(=O)O)c3-c3ccc4cc[nH]c4c3)cc1)CC2 [Entry 174]	5.00 to 6.00
Nc1nc2c(s1)C[C@H](NCc1ccc(C#Cc3cccc(C(=O)O)c3-c3ccc4cc[nH]c4c3)cc1)CC2 [Entry 175]	5.00 to 6.00
CN1CCN(Cc2ccc(C#Cc3cccc(C(=O)O)c3-c3cnc4[nH]ccc4c3)cc2)CC1 [Entry 176]	4.00 to 5.00
COC1CCN(Cc2ccc(C#Cc3cccc(C(=O)O)c3-c3cnc4[nH]ccc4c3)cc2)CC1 [Entry 177]	3.00 to 4.00
COC1CCN(Cc2ccc(C#Cc3cccc(C(=O)O)c3-c3ccc4[nH]ccc4c3)cc2)CC1 [Entry 178]	4.00 to 5.00
CS(=O)(=O)N1CCN(Cc2ccc(C#Cc3cccc(C(=O)O)c3-c3ccc4[nH]ccc4c3)cc2)CC1 [Entry 179]	4.00 to 5.00
